The values below come from patent publication US10959984B2, “Methods for treating cancer with RORγ inhibitors” (THE REGENTS OF THE UNIVERSITY OF CALIFORNIA, priority 2015, dated 2021).

Test [1] relates to C4-2B, VCaP and 22Rv1 xenograft tumors. Put plainly: Xenograft tumor growth, three AR-positive tumor models. As to conditions: 5 mg/kg, i.p., five times per week; including ENZ-resistant 22Rv1. Type of test: in vivo, mice. How it is done: (§1) Four-week-old male SCID C.B17 mice (for C4-2B and VCaP) or BALB/c nu/nu athymic mice (for 22Rv11 and PC-3) were purchased from Harlan Inc. For establishing tumors, 2×10^6 cells were suspended in total of 100 μL PBS/Matrigel (1:1) and implanted subcutaneously into the dorsal flank on both sides of the mice. Animal group size of six or more was estimated to have a high statistic power, based on power calculation (http://www.biomath.info/power/) and previous studies involving the same xenograft models^34,68. When the tumor volume was approximately 80 mm^3, the mice were randomized and then treated intraperitoneally (i.p.) with 100 μl of either vehicle or RORγ antagonists SR2211, XY011/8k (in a formulation of 15% Cremophor EL, Calbiochem, 82.5% PBS, and 2.5% DMSO) for five times per week. Tumor growth was monitored by calipers with volume calculated using the equation: (π/6 (length×width2)). Body weight during the course of the study was also monitored. At the end of the studies mice were killed and tumors were dissected and weighed. Additionally, prostate, seminal vesicle, testis, kidney, heart, lung, liver, epididymal fat pad and spleen were harvested and weighed. To assess the effect of combining RORγ antagonists and ENZ on the growth of castrated-resistant VCaP xenografts (CRPC-VCaP), first, SCID C.B17 mice were injected with VCaP cells as above to establish the tumors. […]

Test [2] relates to LNCaP cells. Put plainly: Cell viability (Cell-Titer GLO), 4 days. It is filed as cell-based. As to conditions: Homo sapiens, 96 h, treated for 4 days, read-out: IC50 (growth inhibition). How it is done:
(§2) For cell viability, cells were seeded in 96-well plates at 1500-2500 cells per well (optimum density for growth) in a total volume of 100 μl media. Serially diluted compounds in […] of media were added to the cells 12 hours later. After 4 days of incubation, Cell-Titer GLO reagents (Promega) were added and luminescence was measured on GLOMAX microplate luminometer (Promega), according to the manufacturer's instructions. All experimental points were set up as sextuplicate as biological replication and the entire experiments were repeated three times. The data are presented as percentage of viable cells with vehicle treated cells set as 100. The estimated in vitro IC50 values were calculated using GraphPad Prism 6 software.

The subject of test [3] is C4-2B and 22Rv1 cells. Put plainly: Apoptosis (caspase-3/7 activity, TUNEL). It is filed as cell-based, human. How it is done: (§3) For apoptosis, Terminal deoxynucleotidyl transferase-mediated dUTP nick end labeling (TUNEL) was performed by using in situ cell death detection kit (Roche) as previously described^56. The results are expressed as a percentage of apoptotic cell number/total cell number. Caspase-3/7 activity was measured using a luminescent caspase-Glo 3/7 assay kit (Promega Corporation, Madison, USA) following the manufacturer's instructions. For cell growth, cells were seeded in 6-well plates at 2×10^5 per well and treated as indicated. Total viable cell numbers were counted using a Coulter cell counter. For colony formation, 800 cells were seeded in a well of 6-well plates and cultured for 14 days with the medium changed every 3 days. When the cell clone grew visible, the medium was removed and the cells were fixed with […] formalin for 10 minutes. Then the plates were washed with PBS for two times and the cell colonies were stained with 0.2% crystal violet (in 10% formalin) for 15 minutes. The numbers of cell colonies were counted after washed 5 times by PBS. The above assays were performed in triplicates and the entire experiments were repeated three times.

The test system of test [4] is AR-negative PCa cells. Put plainly: Prostate cancer cell growth and survival, AR-negative cells. It is filed as cell-based, human. How it is done: as §2, §3
For test [5], the system named is CRPC-VCaP xenografts. Put plainly: Castration-resistant VCaP (CRPC-VCaP) xenograft tumor growth. Type of test: in vivo. As to conditions: castrated mice, SR2211 alone, 5 mg/kg i.p. How it is done:
as §1

The subject of test [6] is HER2-positive cells, such as SKBR3 and HCC1954. Put plainly: CellTiter-GLO viability, HER2-positive breast cancer cells. As to conditions: SKBR3 and HCC1954, 4 days. It is filed as cell-based, human. How it is done:
as §2
(§4) Using a CellTiter-GLO assay, the viability of cells of different cancer types was measured after treatment with different concentrations of RORγ small molecule inhibitors for 4 days.
(In general: ATP-based viability assays read luminescence as a measure of living cells.)

The subject of test [7] is C4-2B and 22Rv1 cells. Put plainly: Colony formation, 14 d. Type of test: cell-based, human. How it is done: as §3
Test [8] has as its system breast cancer cells. Put plainly: CellTiter-GLO viability, breast cancer cells. It is filed as cell-based, human. The note with it: cells having different major molecular features, 4 days. How it is done: as §2, §4
The subject of test [9] is AR and AR-V7. Put plainly: AR and AR variant expression (immunoblotting, qRT-PCR). Type of test: cell-based, human. How it is done: Total RNA was isolated from cells in 6-well or 10-cm plates or from xenograft tumors, and the cDNA was prepared, amplified and measured in the presence of SYBR as previously^49. Briefly, the fluorescent values were collected and a melting curve analysis was performed. Fold difference was calculated as described previously^49. The experiments were performed at least three times with data presented as mean values±s.d. Cell lysates were analyzed by immunoblotting with antibodies specifically recognizing RORγ, AR, AR-V7 and the indicated proteins. The PCR primers and all the antibodies used in this study are described in the Tables 3 and 4.

A word on the IC50: it is the midpoint of a concentration-inhibition curve. `OC(c1ccc(-c2ccc(CN3CCN(Cc4ccncc4)CC3)cc2)c(F)c1)(C(F)(F)F)C(F)(F)F` [SR2211, 2-Fluoro-4′-[[4-(4-pyridinylmethyl)-1-piperazinyl]methyl]-a,a-bis (trifluoromethyl)-[1,1′-biphenyl]-4-methanol]: the tumor growth entry in test [1] is given as “effectively stopped the tumor growth”. In addition, in test [2], the IC50 stood at 1500 nM. Also, in test [3], the apoptosis result is “marked apoptosis”. For the same molecule, in [4], the “inhibition of cell growth and survival in AR-negative cells” value was “not in the AR-negative cells”. In test [5], the CRPC tumor growth result is recorded as “very potent in inhibition of the CRPC tumor growth”. Moreover, the “inhibition of HER2-positive cells” value in [6] was “relatively strong inhibition”. In addition, the colony formation result in test [7] is reported as “poor colony formation”. In addition, the “growth and survival of breast cancer cells” value in [8] is “strongly inhibited the growth and survival of breast cancer cells”. The “expression of AR and AR-V7” value in test [9] (C4-2B and VCaP cells, 72 h) was “potently inhibited the expression of AR and AR-V7 in a dose-dependent manner”. Moreover, in test [9] (C4-2B cells, 5 μM, 24 hours), the AR expression entry is on record as “significant but incomplete suppression of AR expression”. In addition, in [9] (qRT-PCR and Western blotting, PCa cells), the “AR (full-length and spliced variants such as ARV7) mRNA and protein expression” value is “strongly inhibited the expression of AR”.
